Laboratory results taken from US20250099596A1, “TETRAHYDRONAPHTHALENE COMPOUND, AND PREPARATION METHOD THEREFOR AND USE THEREOF IN MEDICINE” (Jiangsu Hengrui Pharmaceuticals Co., Ltd., priority 2021, published 2025).
Read-outs that look alike come from different tables or passages of the source.

Assay: Pharmacokinetic evaluation, SD rat test
Assay type: in vivo
Settings: SD rats; for AUC(0-t): read-out: Area under curve AUC0-t; for half-life: read-out: Half-life T1/2 (converted); for Cmax: read-out: Plasma concentration Cmax
Method: With SD rats as test animals, the plasma concentration of the compound of Example 26-1 was determined by LC/MS/MS at different time points after intragastric (i.g.)/intravenous (i.v.) administration to SD rats. The pharmacokinetic behavior of the compound of the present disclosure in SD rats was studied and its pharmacokinetic profile was evaluated.
Eight SD rats, of which half were male and half female, were evenly divided into 2 groups. The rats were provided by Zhejiang Vital River Laboratory Animal Technology Co., Ltd. The 2 groups were fasted overnight and then dosed intragastrically and intravenously, respectively.
An appropriate amount of the compound of Example 26-1 was weighed out and mixed with 5% EtOH+95% (a 15% solution of polyethylene glycol 15-hydroxystearate prepared in a 5% aqueous solution of glucose) to make a 0.2 mg/mL colorless clear solution (for the intragastric administration group) and a 0.2 mg/mL colorless clear solution (for the intravenous administration group).
The intragastric administration group: the dose was 2.0 mg/kg, and the volume was 10.0 mL/kg.
The intravenous administration group: the dose was 1.0 mg/kg, and the volume was 5.0 mL/kg.
The intragastric administration group: Blood (0.2 mL) was collected from the orbit into EDTA-K2 anticoagulation tubes before administration and 0.25 h, 0.5 h, 1.0 h, 2.0 h, 4.0 h, 6.0 h, 8.0 h, 11.0 h and 24.0 h after administration and centrifuged at 10,000 rpm for 1 min (4° C.). The plasma was separated within 1 h and stored at −20° C. before analysis. The process from blood collection to centrifugation was performed in an ice bath. Two hours after administration, feeding was resumed.
The intravenous administration group: Blood was collected before administration and 5 min, 15 min, 0.5 h, 1.0 h, 2.0 h, 4.0 h, 8.0 h, 11.0 h and 24 h after administration and processed as in the intragastric administration group.
The plasma concentration of the test compound was determined after administration of different concentrations of the test compound to SD rats: plasma samples (25 μL) were collected from SD rats at various time points after administration, and 50 μL of camptothecin (100 ng/mL) was added to each of the samples; proteins were precipitated with 200 μL of acetonitrile; the mixtures were vortexed for 5 min and centrifuged at 4000 rpm for 10 min. 1 μL of supernatant was collected for LC/MS/MS analysis.

[1] = both sexes, rat, plasma, iv, i.v., 1.0 mg/kg
[2] = both sexes, rat, plasma, po, i.g., 2.0 mg/kg

Clearance CL/F (i.v., 1.0 mg/kg): 6.4 mL/min/kg
AUC(0-t) [1]: 2640 ng·h/mL
half-life [1]: 4.8 h
Cmax [1]: 4040 ng/mL
Vd/F (both sexes, rat, plasma, po, i.g., 2.0 mg/kg, read-out: Apparent distribution volume Vz/F): 38.5 L/kg
AUC(0-t) [2]: 302 ng·h/mL
CL/F (both sexes, rat, plasma, po, i.g., 2.0 mg/kg, read-out: Clearance CL/F): 102 mL/min/kg
half-life [2]: 4.4 h
Cmax [2]: 32.9 ng/mL
SMILES: CC(C)C[C@H]1CCc2cc(O)ccc2[C@H]1c1ccc(N2CCC(CN3CCN(c4ccc5c(c4)CN([C@H]4CCC(=O)NC4=O)C5=O)CC3)CC2)cc1 [Example 26-1, (S)-3-(5-(4-((1-(4-((1R,2R)-6-Hydroxy-2-isobutyl-1,2,3,4-tetrahydronaphthalen-1-yl)phenyl)piperidin-4-yl)methyl)piperazin-1-yl)-1-oxoisoindolin-2-yl)piperidine-2,6-dione]
